In PMC11188489, “Pharmacokinetic assessment of tacrolimus in combination with deoxyschizandrin in rats” (Frontiers in Pharmacology, 2024):
“Also recorded” adds a separate entry of the source.

Columns and labels:
[1] = Pharmacokinetics of deoxyschizandrin in rats after single and multiple administrations (UHPLC-MS/MS of plasma); assay type: in vivo, SD rats; conditions: for AUMC0→t / AUC(0-t) / AUC(0-inf) / Cmax / MRT / Tmax / half-life: rat plasma; for AUC(0-t) / AUC(0-inf) / Cmax / MRT / Tmax / half-life: male, SD, rat, plasma
Protocol: The mobile phase A was acetonitrile, and mobile phase B was 0.1% formic acid in water, and the initial mobile phase of gradient elution program was consisted of 60% phase A and 40% phase B. The sample injection volume was set at 10 μL. Gradient elution program was supplied in Supplementary Table S1.
The mass spectrometry detection was achieved on an Agilent 6460A mass spectrometer with ESI source. […] The settings of the mass spectrometer source were as follows: capillary voltage 4,000 V, sheath gas flow 12 L/min, temperature 400°C, dry gas (nitrogen) flow 10 L/min and temperature 350°C, nebulizer pressure 45 psi. All analytes were detected in positive ionization mode. Collision gas (high purity liquid nitrogen) was set at 0.25 MPa. The structures of both two analytes and IS are display in Figure 1.
The pretreatment was performed for the plasma sample by one-step protein precipitation, Briefly, 100 μL sample was transferred into a 1.5 mL EP tube prior to adding with 300 μL methanol(containing 200 ng/mL IS). The mixture was vortex-mixed for 30 s before centrifugation at 17,400 g for 10 min at room temperature, and 100 μL of the supernatant was diluted with 100 μL of acetonitrile (v/v, 1:1) Then, a 10 μL aliquoted of diluted solution was injected into the UHPLC-MS/MS system for analysis.
The protocol of the animal study was approved by the Experimental Animal Ethics Committee of the Shanghai University of Traditional Chinese Medicine. Specific Pathogen Free (SPF) grade SD rats, male, 8 weeks old, 200–250 g, were obtained from the animal experiment center of Shanghai University of Traditional Chinese Medicine. After passing quarantine, the rats were adaptive fed for 2 days. Rats were fasted for 12–14 h, followed by the initiation of pharmacokinetic study of Tac and deoxyschizandrin. This animal study was carried out in accordance with the National Institutes of Health Guide for the Care and Use of Laboratory animals.
(§1) In this study, 42 rats were divided equally into seven groups of six rats each, numbered NG2201-NG2207. Among them, the NG2201 and NG2202 group was dosed with 150 mg/kg deoxyschizandrin alone to study the PK of deoxyschizandrin in rats after single and multiple doses; the NG2203 group was administrate dosed with 1.0 mg/kg of Tac; the NG2204-NG2206 groups were dosed with 75, 150, and 300 mg/kg of deoxyschizandrin plus 1.0 mg/kg Tac, respectively, and the NG2207 group was dosed with the Wuzhi capsule (approximately equal to 150 mg/kg of deoxyschizandrin) plus 1.0 mg/kg of Tac ([Teng et al., 2022]). The detailed dosing regimen is shown in Table 2, and all dose in this experiment were calculated according to clinical dose. Blood samples (approximately 300 μL for each) for PK analysis were collected into lithium–heparin tubes. The plasma sampling schedules are outlined below: Blood samples were drawn pre-dose, at 5, 10, 20 and 30 min, and at 1, 1.5, 2, 4, 8 and 24 h after drug administration. The blood samples were centrifuged at 5,000 g for 15 min at 4°C to collect plasma samples, which were placed −80 refrigerator.
The rat plasma collected from each group was pretreated according to the method in section 2.5, and exposure levels of Tac and deoxyschizandrin were determined using the above established UHPLC-MS/MS method and the PKs were calculated using DAS software using non-compartment model (version 2.0, China Pharmacological Society). The data were presented as mean ± SD.

[2] = Observation of adverse reactions in rats during 12 days of continuous administration; assay type: in vivo; conditions: 150 mg/kg deoxyschizandrin oral
Protocol: as §1, with “refrigerator. […]” for “refrigerator.”

[3] = Stability of the two analytes in rat plasma under different storage conditions; assay type: in vitro ADME; conditions: n=5
Protocol: To prepare the stock solution, approximately 2.00 mg of Tac, deoxyschizandrin and IS were accurately weighed and dissolved in methanol, respectively. The stock solutions of Tac and deoxyschizandrin with a final concentration of 1.00 mg/mL was obtained, and the IS stock solution was diluted to 100.00 ng/mL using methanol before use. The stock solutions were aliquoted and stored at −80°C. Combined working solutions were prepared by diluting the stock solution using 10% aqueous methanol at the following concentrations: 5.00, 10.00, 20.00, 50.00, 100.00, 200.00, 500.00, 1,000.00, and 2,000.00 ng/mL. Blank rat plasma was used to prepare the calibration standards. Quality-control (QC) samples of two analytes were prepared separately in the same manner at three concentrations, namely, 10 (low concentration), 100 (middle), 1,000 ng/mL (high), and all QC samples were stored at −80°C.
The methodology validation was completed according to FDA guidelines and Chinese Pharmacopoeia (2015 edition), and the linearity, inter- and intra-precision and accuracy, matrix effect and extraction recovery, stability and specificity of this method were validated according to previous study ([Lu et al., 2022]; [Wang et al., 2022]; [Shu et al., 2016]).

[4] = po, 150 mg/kg, NG2201: 150 mg/kg deoxyschizandrin single, D1-D2
[5] = po, 150 mg/kg, NG2202: 150 mg/kg deoxyschizandrin multiple (12 days), D11-D12

## COc1cc2c(c(OC)c1OC)-c1c(cc(OC)c(OC)c1OC)C[C@H](C)[C@H](C)C2 [deoxyschizandrin]
[1]; 150 mg/kg, multiple vs single dose, rats
  increase of C max of deoxyschizandrin after consecutive 12 days of administration: about 1.5 fold
[1]; NG2201: 150 mg/kg deoxyschizandrin single, D1-D2
  AUMC0→t: 4,088.71 ± 1,056.37 ng. h^2/mL
[1]; NG2202: 150 mg/kg deoxyschizandrin multiple (12 days), D11-D12
  AUMC0→t: 13,360.23 ± 8,009.79 ng. h^2/mL
[1]; oral, 150 mg/kg, NG2201: 150 mg/kg deoxyschizandrin, first day
  AUC(0-t): 786 ± 174 ng·h/mL
[1]; oral, 150 mg/kg, NG2202: after 12 days of continuous administration of 150 mg/kg deoxyschizandrin
  AUC(0-t): 1810 ± 707 ng·h/mL
[1]; [4]
  AUC(0-inf): 806 ± 176 ng·h/mL
  AUC(0-t): 786 ± 174 ng·h/mL
  Cmax: 148 ± 23.2 ng/mL
  MRT: 5.17 ± 0.33 h
  Tmax: 0.92 ± 0.2 h
  half-life: 4.48 ± 0.53 h
[1]; [5]
  AUC(0-inf): 2410 ± 1720 ng·h/mL
  AUC(0-t): 1810 ± 707 ng·h/mL
  Cmax: 229 ± 54.8 ng/mL
  MRT: 6.95 ± 1.42 h
  Tmax: 1.5 ± 1.23 h
  half-life: 9.1 ± 7.83 h
[2]
  adverse reactions: No adverse reactions occurred; also recorded: no adverse effects were demonstrated
[3]; Nominal Conc. 10 ng/mL
  Auto-sampler stability (24h, 4℃) Mean ± SD: 10.23±0.93
  Bench-top stability (8h, RT) Mean ± SD: 10.63±0.83
  Frozen-thaw stability (3 times) Mean ± SD: 10.45±1.01
  Long-term stability (1 month, -80℃) Mean ± SD: 10.37±0.25
[3]; Nominal Conc. 100 ng/mL
  Auto-sampler stability (24h, 4℃) Mean ± SD: 104.49±5.32
  Bench-top stability (8h, RT) Mean ± SD: 102.39±2.82
  Frozen-thaw stability (3 times) Mean ± SD: 111.56±12.48
  Long-term stability (1 month, -80℃) Mean ± SD: 101.86±11.38
[3]; Nominal Conc. 1000 ng/mL
  Auto-sampler stability (24h, 4℃) Mean ± SD: 1024.65±13.44
  Bench-top stability (8h, RT) Mean ± SD: 1014.96±11.94
  Frozen-thaw stability (3 times) Mean ± SD: 1050.50±50.54
  Long-term stability (1 month, -80℃) Mean ± SD: 1012.51±45.24
